Data from US12606533B2, “3-phenylpropylamine derivative” (DAIICHI SANKYO COMPANY, LIMITED, priority 2023, dated 2026).

Legend:
NCI-H295R cells = experiment: Proliferation inhibitory action on NCI-H295R (CellTiter-Glo, 7 days); assay type: cell-based, human; conditions: Homo sapiens, NCI-H295R, 168 h
Experimental: DMSO solutions of each compound were serially diluted with DMSO using a D300e Digital Dispenser (TECAN), and added to a 384-well plate (Thermo Fisher Scientific Inc.). NCI-H295R cells were seeded in a 384-well plate at 2×10^3 cells/40 μL/well and cultured for 7 days in a 37° C., 5% CO2 incubator. […] On the first day of culture (day 0) and the seventh day of culture (day 7), 10 μL/well of CellTiter-Glo (registered trademark) 2.0 Assay (Promega) was added, and the luminescence signal was detected using a multimode plate reader (EnVision, PerkinElmer). The cell proliferation rate was calculated from the luminescence amount on the day of compound addition (CO), the luminescence amount of the compound-free group after 7 days of culture (C7), and the luminescence amount of the compound-added group (T7), based on the following formula.

SF-1 = target: T1, SF-1 (Homo sapiens, UniProt Q13285); experiment: SF1 degradation induction in NCI-H295R SF-1-HiBiT cells (HiBiT DC50); assay type: cell-based; conditions: 24 hr, concentration that induces 50% degradation of SF-1
T1 construct: NCI-H295R SF-1-HiBiT cells with HiBiT tag knocked in at the endogenous SF1 locus; host or cells: NCI-H295R SF-1-HiBiT (knock-in at endogenous locus)
Experimental: NCI-H295R SF-1-HiBiT cells were seeded in a 384-well plate (Thermo Fisher Scientific Inc.) at 1×10^4 cells/50 μL/well and cultured at 37° C. in a 5% CO2 incubator for 24 hr. DMSO solutions of each compound were serially diluted with DMSO using a D300e Digital Dispenser (TECAN), added to a 384-well plate, and cultured in a 5% CO2 incubator at 37° C. for 24 hr. […] After completion of culture, the medium was discarded, and Nano-Glo (registered trade mark) HiBiT Lytic Detection System (Promega, Cat. No. N3040) was added at 20 μL/well and stirred with a plate mixer. Luminescence signals were then detected using a multimode plate reader (EnVision Xcite, PerkinElmer). The SF-1 protein degradation rate was calculated from the amount of luminescence (C) in the compound-free group and the amount of luminescence (T) in the compound-added group, based on the following formula.
The obtained data was analyzed using GraphPad Prism9 (GraphPad Software Inc.) or Genedata Screener (Genedata AG) to calculate the concentration that induces 50% degradation of SF-1 (DC50 value).

Structure (SMILES) | GI50 (NCI-H295R cells) [nM] | DC50 (SF-1) [nM]
COc1ccc([C@]2(CCN(Cc3ccc(C4=CCC(C(=O)N5CCN(Cc6ccc7c(c6)n(C)c(=O)n7C6CCC(=O)NC6=O)CC5)CC4)cc3F)CC(C)(C)C(F)(F)F)CCOC(C)(C)C2)cc1 (stereo partly drawn) [AT3, 3-[5-({4-[(3′-Fluoro-4′-{[{2-[(4R)-4-(4-methoxyphenyl)-2,2-dimethyltetrahydro-2H-pyran-4-yl]ethyl}(3,3,3-trifluoro-2,2-dimethylpropyl)amino]methyl}-2,3,4,5-tetrahydro[biphenyl]-4-yl)carbonyl]piperazin-1-yl}methyl)-3-methyl-2-oxo-2,3-dihydro-1H-benzimidazol-1-yl]piperidine-2,6-dione] | 45 | 7.7
COc1ccc([C@]2(CCN(Cc3cc(F)c(C4=CCC(C(=O)N5CCN(Cc6ccc7c(c6)n(C)c(=O)n7C6CCC(=O)NC6=O)CC5)CC4)c(F)c3)CC(C)(C)C(F)(F)F)CCOC(C)(C)C2)cc1 (stereo partly drawn) [AU4, 3-[5-({4-[(2′,6′-Difluoro-4′-{[{2-[(4R)-4-(4-methoxyphenyl)-2,2-dimethyltetrahydro-2H-pyran-4-yl]ethyl)(3,3,3-trifluoro-2,2-dimethylpropyl)amino]methyl}-2,3,4,5-tetrahydro[biphenyl]-4-yl)carbonyl]piperazin-1-yl}methyl)-3-methyl-2-oxo-2,3-dihydro-1H-benzimidazol-1-yl]piperidine-2,6-dione] | 60 | 9.3
COc1ccc([C@]2(CCN(Cc3ccc(C4=CCC(C(=O)N5CCN(Cc6ccc7c(c6)n(C)c(=O)n7C6CCC(=O)NC6=O)CC5)CC4)c(F)c3F)CC(C)(C)C(F)(F)F)CCOC(C)(C)C2)cc1 (stereo partly drawn) [AV2, 3-[5-({4-[(2′,3′-Difluoro-4′-{[{2-[(4R)-4-(4-methoxyphenyl)-2,2-dimethyltetrahydro-2H-pyran-4-yl]ethyl}(3,3,3-trifluoro-2,2-dimethylpropyl)amino]methyl}-2,3,4,5-tetrahydro[biphenyl]-4-yl)carbonyl]piperazin-1-yl}methyl)-3-methyl-2-oxo-2,3-dihydro-1H-benzimidazol-1-yl]piperidine-2,6-dione] | 61 | 7.4
COc1ccc([C@]2(CCN(Cc3ccc(C4=CCC(CN5CCN(Cc6ccc7c(c6)n(C)c(=O)n7C6CCC(=O)NC6=O)CC5=O)CC4)cc3)CC(C)(C)C(F)(F)F)CCOC(C)(C)C2)cc1 (stereo partly drawn) [AX3, 3-[5-({4-[(4′-{[{2-[(4R)-4-(4-Methoxyphenyl)-2,2-dimethyltetrahydro-2H-pyran-4-yl]ethyl)(3,3,3-trifluoro-2,2-dimethylpropyl)amino]methyl}-2,3,4,5-tetrahydro[biphenyl]-4-yl)methyl]-3-oxopiperazin-1-yl}methyl)-3-methyl-2-oxo-2,3-dihydro-1H-benzimidazol-1-yl]piperidine-2,6-dione] | 61 | 7.1
COc1ccc([C@]2(CCN(Cc3ccc(C4=CCC(C(=O)N[C@H]5C[C@H](Nc6ccc7c(c6)n(C)c(=O)n7C6CCC(=O)NC6=O)C5)CC4)cc3)CC(C)(C)C(F)(F)F)CCOC(C)(C)C2)cc1 (stereo partly drawn) [AY8, N-(Trans-3-{[1-(2,6-dioxopiperidin-3-yl)-3-methyl-2-oxo-2,3-dihydro-1H-benzimidazol-5-yl]amino}cyclobutyl)-4′-{[{2-[(4R)-4-(4-methoxyphenyl)-2,2-dimethyltetrahydro-2H-pyran-4-yl]ethyl}(3,3,3-trifluoro-2,2-dimethylpropyl)amino]methyl}-2,3,4,5-tetrahydro[biphenyl]-4-carboxamide] | 71 | 7.3
COc1ccc([C@]2(CCN(Cc3ccc4nn(C5CC6(CCN(CC(=O)Nc7ccc8c(c7)n(C)c(=O)n8C7CCC(=O)NC7=O)CC6)C5)cc4c3)CC(C)(C)C(F)(F)F)CCOC(C)(C)C2)cc1 (stereo partly drawn) [AZ8, N-[1-(2,6-Dioxopiperidin-3-yl)-3-methyl-2-oxo-2,3-dihydro-1H-benzimidazol-5-yl]-2-[2-(5-{[{2-[(4R)-4-(4-methoxyphenyl)-2,2-dimethyltetrahydro-2H-pyran-4-yl]ethyl}(3,3,3-trifluoro-2,2-dimethylpropyl)amino]methyl}-2H-indazol-2-yl)-7-azaspiro[3.5]nonan-7-yl]acetamide] | 28 | 7
COc1ccc([C@]2(CCN(Cc3ccc4c(cnn4C4CC5(CCN(CC(=O)Nc6ccc7c(c6)n(C)c(=O)n7C6CCC(=O)NC6=O)CC5)C4)c3)CC(C)(C)C(F)(F)F)CCOC(C)(C)C2)cc1 (stereo partly drawn) [BA6, N-[1-(2,6-Dioxopiperidin-3-yl)-3-methyl-2-oxo-2,3-dihydro-1H-benzimidazol-5-yl]-2-[2-(5-{[{2-[(4R)-4-(4-methoxyphenyl)-2,2-dimethyltetrahydro-2H-pyran-4-yl]ethyl)(3,3,3-trifluoro-2,2-dimethylpropyl)amino]methyl}-1H-indazol-1-yl)-7-azaspiro[3.5]nonan-7-yl]acetamide] | 23 | 4.9
COc1ccc([C@]2(CCN(Cc3ccc(C4=C(F)CC(C(=O)N5CCN(Cc6ccc7c8c6CCCn8c(=O)n7C6CCC(=O)NC6=O)CC5)CC4)cc3)CC(C)(C)C(F)(F)F)CCOC(C)(C)C2)cc1 (stereo partly drawn) [BB7, 3-[7-({4-[(6-Fluoro-4′-{[{2-[(4R)-4-(4-methoxyphenyl)-2,2-dimethyltetrahydro-2H-pyran-4-yl]ethyl)(3,3,3-trifluoro-2,2-dimethylpropyl)amino]methyl}-2,3,4,5-tetrahydro[biphenyl]-4-yl)carbonyl]piperazin-1-yl}methyl)-2-oxo-5,6-dihydro-4H-imidazo[4,5,1-ij]quinolin-1(2H)-yl]piperidine-2,6-dione] | 62 | 9
COc1ccc([C@]2(CCN(Cc3ccc(C4=CCC(CN5CCN(C(=O)c6ccc7c(n6)n(C)c(=O)n7C6CCC(=O)NC6=O)CC5)CC4)cc3)CC(C)(C)C(F)(F)F)CCOC(C)(C)C2)cc1 (stereo partly drawn) [BC6, 3-[5-({4-[(4′-{[{2-[(4R)-4-(4-Methoxyphenyl)-2,2-dimethyltetrahydro-2H-pyran-4-yl]ethyl}(3,3,3-trifluoro-2,2-dimethylpropyl)amino]methyl}-2,3,4,5-tetrahydro[biphenyl]-4-yl)methyl]piperazin-1-yl}carbonyl)-3-methyl-2-oxo-2,3-dihydro-1H-imidazo[4,5-b]pyridin-1-yl]piperidine-2,6-dione] | 48 | 6.2
COc1ccc([C@]2(CCN(CC(C)(C)C(F)(F)F)C[C@H]3CC[C@H](c4ccc(NC(=O)C5CC(Nc6ccc7c(c6)n(C)c(=O)n7C6CCC(=O)NC6=O)C5)cc4)CC3)CCOC(C)(C)C2)cc1 (stereo partly drawn) [BD6, 3-{[1-(2,6-Dioxopiperidin-3-yl)-3-methyl-2-oxo-2,3-dihydro-1H-benzimidazol-5-yl]amino)-N-[4-(trans-4-{[{2-[(4R)-4-(4-methoxyphenyl)-2,2-dimethyltetrahydro-2H-pyran-4-yl]ethyl}(3,3,3-trifluoro-2,2-dimethylpropyl)amino]methyl}cyclohexyl)phenyl]cyclobutanecarbox amide] | 57 | 3
COc1ccc([C@]2(CCN(CC3CC=C(c4ccc(NC(=O)C5CC(Nc6ccc7c(c6)n(C)c(=O)n7C6CCC(=O)NC6=O)C5)c(F)c4)CC3)CC(C)(C)C(F)(F)F)CCOC(C)(C)C2)cc1 (stereo partly drawn) [BE5, 3-{[1-(2,6-Dioxopiperidin-3-yl)-3-methyl-2-oxo-2,3-dihydro-1H-benzimidazol-5-yl]amino}-N-(3-fluoro-4′-{[{2-[(4R)-4-(4-methoxyphenyl)-2,2-dimethyltetrahydro-2H-pyran-4-yl]ethyl}(3,3,3-trifluoro-2,2-dimethylpropyl)amino]methyl}-2′,3′,4′,5′-tetrahydro[biphenyl]-4-yl)cyclobutanecarboxamide] | 124 | 2.6
